We go through 27 molecules from patent US10689331B2, “IDO inhibitors” (Bristol-Myers Squibb Company, priority 2015, dated 2020).

T1 sequence (P14902 whole entry): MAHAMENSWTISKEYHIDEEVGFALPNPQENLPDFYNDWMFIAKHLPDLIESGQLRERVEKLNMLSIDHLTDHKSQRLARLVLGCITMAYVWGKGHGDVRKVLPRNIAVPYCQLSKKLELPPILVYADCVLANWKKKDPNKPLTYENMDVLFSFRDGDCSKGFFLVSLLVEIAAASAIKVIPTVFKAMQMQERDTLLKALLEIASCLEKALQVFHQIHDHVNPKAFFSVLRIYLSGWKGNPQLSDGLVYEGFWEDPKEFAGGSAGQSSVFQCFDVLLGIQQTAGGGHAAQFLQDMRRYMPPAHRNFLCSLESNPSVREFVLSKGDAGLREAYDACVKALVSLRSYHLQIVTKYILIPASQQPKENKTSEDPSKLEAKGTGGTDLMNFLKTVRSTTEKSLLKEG

The experiment has as its target T1, human IDO1 (Homo sapiens, UniProt P14902).
T1 construct: expressed in transfected cells
Kind of experiment: HEK Human IDO-1 inhibition assay (kynurenine readout, Ehrlich reagent, absorbance 490 nm). Conditions: human IDO1/HEK293 cells, incubated 20 hours with compound; 500 nM reference standard = 100% inhibition. In kind it is cell-based. On the procedure:
HEK293 cells were transfected with a pCDNA-based mammalian expression vector harboring human IDO1 cDNA (NM 002164.2) by electroporation. They were cultured in medium (DMEM with 10% FBS) containing 1 mg/ml G418 for two weeks. Clones of HEK293 cells that stably expressed human IDO1 protein were selected and expanded for IDO inhibition assay.
The human IDO1/HEK293 cells were seeded at 10,000 cells per 50 uL per well with RPMI/phenol red free media contains 10% FBS in a 384-well black wall clear bottom tissue culture plate (Matrix Technologies LLC) 100 nL of certain concentration of compound was then added to each well using ECHO liquid handling systems. The cells were incubated for 20 hours in 37° C. incubator with 5% CO2.
The compound treatments were stopped by adding Trichloroacetic Acid (Sigma-Aldrich) to a final concentration at 0.2%. The cell plate was further incubated at 50° C. for 30 minute. The equal volume supernatant (20 uL) and 0.2% (w/v) Ehrlich reagent (4-dimethylaminobenzaldehyde, Sigma-Aldrich) in glacial acetic acid were mixed in a new clear bottom 384-well plate. This plate was then incubated at room temperature for 30 minute. The absorbance at 490 nm was measured on Envision plate reader. Compound IC50 values were calculated using the counts of 500 nM of a reference standard treatment as one hundred percent inhibition, and counts of no compound but DMSO treatment as zero percent inhibition.
One may read the IC50 as the midpoint of a concentration-inhibition curve. For the molecule `CC(C)CN(c1ccc(OC(C)C(=O)O)cc1NC(=O)Nc1ccc(Cl)cc1F)C1CCOC1` (single isomer, unassigned) [Example 146-2, 2-(3-(3-(4-chloro-2-fluorophenyl)ureido)-4-(isobutyl(tetrahydrofuran-3-yl)amino)phenoxy)propanoic acid], the IC50 was below 100 nM. The same measure for `CC(C)CN(c1ccc(OCC(=O)O)cc1NC(=O)Nc1ccc(Cl)cc1F)C1CCCCC1` [Example 1, 2-(3-(3-(4-chloro-2-fluorophenyl)ureido)-4-(cyclohexyl(isobutyl)amino)phenoxy)acetic acid]: below 5 nM; for `CC(C)CN(c1ccc(OCC(=O)O)cc1NC(=O)Nc1cncnc1)C1CCCCC1` [Example 2, 2-(4-(cyclohexyl(isobutyl)amino)-3-(3-(pyrimidin-5-yl)ureido)phenoxy)acetic acid]: at least 100 nM; for `CC(C)CN(c1ccc(OCC(=O)O)cc1NC(=O)Nc1cccnc1)C1CCCCC1` [Example 3, 2-(4-(cyclohexyl(isobutyl)amino)-3-(3-(pyridin-3-yl)ureido)phenoxy)acetic acid]: at least 100 nM.

As for `Cc1cc(NC(=O)Nc2cc(OCC(=O)O)ccc2N(CC(C)C)C2CCCCC2)on1` [Example 4, 2-(4-(cyclohexyl(isobutyl)amino)-3-(3-(3-methylisoxazol-5-yl)ureido)phenoxy)acetic acid], the IC50 is below 100 nM. The value for `CC(C)CN(c1ccc(OCC(=O)O)cc1NC(=O)Nc1ccncc1)C1CCCCC1` [Example 5, 2-(4-(cyclohexyl(isobutyl)amino)-3-(3-(pyridin-4-yl)ureido)phenoxy)acetic acid] was at least 100 nM; that for `CC(C)CN(c1ccc(OCC(=O)O)cc1NC(=O)Nc1nncs1)C1CCCCC1` [Example 6, 2-(3-(3-(1,3,4-thiadiazol-2-yl)ureido)-4-(cyclohexyl(isobutyl)amino)phenoxy)acetic acid] was at least 100 nM. The value for `Cc1cc(NC(=O)Nc2cc(OCC(=O)O)ccc2N(CC(C)C)C2CCCCC2)no1` [Example 7, 2-(4-(cyclohexyl(isobutyl)amino)-3-(3-(5-methylisoxazol-3-yl)ureido)phenoxy)acetic acid] was at least 100 nM; that for `CC(C)CN(c1ccc(OCC(=O)O)cc1NC(=O)Nc1nnc(C(F)(F)F)s1)C1CCCCC1` [Example 8, 2-(4-(cyclohexyl(isobutyl)amino)-3-(3-(5-(trifluoromethyl)-1,3,4-thiadiazol-2-yl)ureido)phenoxy) acetic acid] was at least 100 nM. The same measure for `CC(C)CN(c1ccc(OCC(=O)O)cc1NC(=O)Nc1ccc(N(C)C)cc1)C1CCCCC1` [Example 9, 2-(4-(cyclohexyl(isobutyl)amino)-3-(3-(4-(dimethylamino)phenyl)ureido)phenoxy)acetic acid]: at least 100 nM; for `CC(C)CN(c1ccc(OCC(=O)O)cc1NC(=O)Nc1ccon1)C1CCCCC1` [Example 10, 2-(4-(cyclohexyl(isobutyl)amino)-3-(3-(isoxazol-3-yl)ureido)phenoxy)acetic acid]: at least 100 nM.

In the case of `Cc1nnc(NC(=O)Nc2cc(OCC(=O)O)ccc2N(CC(C)C)C2CCCCC2)s1` [Example 11, 2-(4-(cyclohexyl(isobutyl)amino)-3-(3-(5-methyl-1,3,4-thiadiazol-2-yl)ureido)phenoxy)acetic acid], the IC50 was at least 100 nM.

For the molecule `CC(C)CN(c1ccc(OCC(=O)O)cc1NC(=O)Nc1nccs1)C1CCCCC1` [Example 12, 2-(4-(cyclohexyl(isobutyl)amino)-3-(3-(thiazol-2-yl)ureido)phenoxy)acetic acid], the IC50 was at least 100 nM. The same measure for `CC(C)CN(c1ccc(OCC(=O)O)cc1NC(=O)Nc1ccc(Oc2ccccc2)cc1)C1CCCCC1` [Example 13, 2-(4-(cyclohexyl(isobutyl)amino)-3-(3-(4-phenoxyphenyl)ureido)phenoxy)acetic acid]: at least 100 nM; for `CC(C)CN(c1ccc(OCC(=O)O)cc1NC(=O)Nc1ccc(-c2cnco2)cc1)C1CCCCC1` [Example 14, 2-(4-(cyclohexyl(isobutyl)amino)-3-(3-(4-(oxazol-5-yl)phenyl)ureido)phenoxy)acetic acid]: at least 100 nM; for `CC(C)CN(c1ccc(OCC(=O)O)cc1NC(=O)Nc1ccc(OCc2ccccc2)cc1)C1CCCCC1` [Example 15, 2-(3-(3-(4-(benzyloxy)phenyl)ureido)-4-(cyclohexyl(isobutyl)amino)phenoxy)acetic acid]: at least 100 nM.

On to `CC(C)CN(c1ccc(OCC(=O)O)cc1NC(=O)N1CCc2ccccc21)C1CCCCC1` [Example 16, 2-(4-(cyclohexyl(isobutyl)amino)-3-(indoline-1-carboxamido)phenoxy)acetic acid], for which the IC50 was at least 100 nM.

Turning to `CC(C)CN(c1ccc(OCC(=O)O)cc1NC(=O)Nc1ccc(F)cc1)C1CCCCC1` [Example 17, 2-(4-(cyclohexyl(isobutyl)amino)-3-(3-(4-fluorophenyl)ureido)phenoxy)acetic acid], the IC50 was below 100 nM.

In the case of `CC(C)CN(c1ccc(OCC(=O)O)cc1NC(=O)Nc1ccccc1F)C1CCCCC1` [Example 18, 2-(4-(cyclohexyl(isobutyl)amino)-3-(3-(2-fluorophenyl)ureido)phenoxy)acetic acid], the concentration for half-maximal inhibition (IC50) is below 5 nM. The same measure for `CC(C)CN(c1ccc(OCC(=O)O)cc1NC(=O)Nc1c(F)cccc1F)C1CCCCC1` [Example 19, 2-(4-(cyclohexyl(isobutyl)amino)-3-(3-(2,6-difluorophenyl)ureido)phenoxy)acetic acid]: at least 100 nM; for `CC(C)CN(c1ccc(OCC(=O)O)cc1NC(=O)Nc1cc(F)ccc1F)C1CCCCC1` [Example 20, 2-(4-(cyclohexyl(isobutyl)amino)-3-(3-(2,5-difluorophenyl)ureido)phenoxy)acetic acid]: below 5 nM; for `CC(C)CN(c1ccc(OCC(=O)O)cc1NC(=O)Nc1cc(Cl)ccc1F)C1CCCCC1` [Example 22, 2-(3-(3-(5-chloro-2-fluorophenyl)ureido)-4-(cyclohexyl(isobutyl)amino)phenoxy)acetic acid]: below 100 nM.

For the molecule `Cc1ccc(NC(=O)Nc2cc(OCC(=O)O)ccc2N(CC(C)C)C2CCCCC2)c(F)c1` [Example 23, 2-(4-(cyclohexyl(isobutyl)amino)-3-(3-(2-fluoro-4-methylphenyl)ureido)phenoxy) acetic acid], the IC50 was below 5 nM. The value for `CC(C)CN(c1ccc(OCC(=O)O)cc1NC(=O)Nc1ccc(F)c(Cl)c1F)C1CCCCC1` [Example 24, 2-(3-(3-(3-chloro-2,4-difluorophenyl)ureido)-4-(cyclo-hexyl(isobutyl)amino)phenoxy) acetic acid] was at least 100 nM; that for `COc1ccc(NC(=O)Nc2cc(OCC(=O)O)ccc2N(CC(C)C)C2CCCCC2)c(F)c1` [Example 25, 2-(4-(cyclohexyl(isobutyl)amino)-3-(3-(2-fluoro-4-methoxyphenyl)ureido)phenoxy)acetic acid] was below 5 nM; that for `CC(C)CN(c1ccc(OCC(=O)O)cc1NC(=O)Nc1cccc(Cl)c1F)C1CCCCC1` [Example 26, 2-(3-(3-(3-chloro-2-fluorophenyl)ureido)-4-(cyclo-hexyl(isobutyl)amino)phenoxy) acetic acid] was at least 100 nM. The value for `CC(C)CN(c1ccc(OCC(=O)O)cc1NC(=O)Nc1cccc(C(F)(F)F)c1F)C1CCCCC1` [Example 27, 2-(4-(cylclohexyl(isobutyl)amino)-3-(3-(2-fluoro-3-(trifluoromethyl)phenyl)ureido)phenoxy)acetic acid] was at least 100 nM.
